Data published in PubChem BioAssay AID200 (DTP/NCI, 2004).
Several values for one entry are separate records, joined by “and”; a condition that tells them apart may be missing. Equal entries are not always repeated. Inconclusive results and toxic doses are left out. How the source made its calls: active means survival T/C of 150% or more; inactive means T/C below 125% in these data.

Test system: B6C3F1 mice, B16 melanoma ip, median survival T/C
Assay: NCI In Vivo Anticancer Drug Screen. Data for tumor model B16 Melanoma (intraperitoneal) in B6C3F1 mice
Conditions: endpoint: median survival time, schedule: Q01DX009 (ip), higher = longer survival
Method in brief: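 Values are T/C ratios: the measurement in treated animals divided by that in vehicle-treated controls, using survival or tumor size in mice carrying transplantable tumors.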

[1] = dose: 12.5 mg/kg/injection, vehicle: saline with Tween-80
[2] = dose: 25.0 mg/kg/injection, vehicle: saline with Tween-80
[3] = dose: 50.0 mg/kg/injection, vehicle: saline with Tween-80
[4] = dose: 100.0 mg/kg/injection, vehicle: saline with Tween-80
[5] = dose: 200.0 mg/kg/injection, vehicle: saline with Tween-80
[6] = dose: 400.0 mg/kg/injection, vehicle: saline with Tween-80

Measured: T/C

BrC1CC(Br)c2c1c1c(c3c2C(Br)CC3Br)C(Br)CC1Br (stereo not drawn)
inactive: [1] 108 % of control and 105 % of control | [2] 114 % of control and 117 % of control and 123 % of control | [3] 114 % of control | [4] 118 % of control and 93 % of control | [5] 123 % of control

COc1ccc(OC)c(Cc2cnc3nc(N)nc(N)c3c2C)c1
inactive: dose: 6.25 mg/kg/injection, vehicle: water 106 % of control | dose: 12.5 mg/kg/injection, vehicle: water 104 % of control | dose: 25.0 mg/kg/injection, vehicle: water 99 % of control | dose: 50.0 mg/kg/injection, vehicle: water 93 % of control

O=C1OCC2(C(=O)O)C(=O)OCC12 (stereo not drawn)
inactive: [1] 105 % of control | [2] 100 % of control | [3] 101 % of control | [4] 104 % of control | [5] 90 % of control

COC(=O)C12OCC34C(CC5C(C)C6=CC(=O)OC6=CC5(C)C3C(O)C1O)OC(=O)C(OC(C)=O)C24 (stereo not drawn)
inactive: dose: 0.12 mg/kg/injection, vehicle: saline + alcohol 110 % of control | dose: 0.25 mg/kg/injection, vehicle: saline + alcohol 109 % of control | dose: 0.5 mg/kg/injection, vehicle: saline + alcohol 105 % of control | dose: 1.0 mg/kg/injection, vehicle: saline + alcohol 103 % of control | dose: 2.0 mg/kg/injection, vehicle: saline + alcohol 109 % of control

COc1nc2c(=O)[nH]c(N)nc2n1C1OC(CO)C(O)C1O (stereo not drawn)
inactive: [4] 96 % of control | [5] 93 % of control | [6] 91 % of control

Nc1nc(-c2ccc([N+](=O)[O-])cc2)c(Br)c(=O)[nH]1
inactive: [2] 98 % of control | [3] 107 % of control | [4] 107 % of control | [5] 95 % of control

CC(SC(C)C(=O)N/N=C/c1ccc(C#N)cc1)C(=O)N/N=C\c1ccc(C#N)cc1 (stereo not drawn)
inactive: [3] 92 % of control | [4] 88 % of control | [5] 87 % of control | dose: 200.0 mg/kg/injection, vehicle: saline 88 % of control

COc1ccc(C(=O)C(=O)c2ccc(OC)c(OC)c2)cc1OC
inactive: dose: 1.56 mg/kg/injection, vehicle: saline 101 % of control | dose: 3.13 mg/kg/injection, vehicle: saline 99 % of control | dose: 6.25 mg/kg/injection, vehicle: saline 97 % of control

O=C(N[C@H](CO)[C@H](O)c1ccc([N+](=O)[O-])cc1)C(Cl)Cl
inactive: [3] 117 % of control | [4] 103 % of control | [5] 109 % of control | [6] 97 % of control | dose: 800.0 mg/kg/injection, vehicle: saline with Tween-80 100 % of control

CC(=O)OCC1OC([S-])C(OC(C)=O)C(OC(C)=O)C1OC(C)=O.CC[PH+](CC)CC.CC[PH+](CC)CC.[Au].[Au] (stereo not drawn)
inactive: dose: 0.62 mg/kg/injection, vehicle: Klucel (hydroxypropylcellulose) (HPC) 110 % of control and 105 % of control | dose: 1.25 mg/kg/injection, vehicle: Klucel (hydroxypropylcellulose) (HPC) 109 % of control | dose: 2.5 mg/kg/injection, vehicle: Klucel (hydroxypropylcellulose) (HPC) 98 % of control and 103 % of control | dose: 5.0 mg/kg/injection, vehicle: Klucel (hydroxypropylcellulose) (HPC) 114 % of control and 97 % of control | dose: 10.0 mg/kg/injection, vehicle: Klucel (hydroxypropylcellulose) (HPC) 92 % of control

COc1cc(C(C)(C)C)cc(OC)c1C(O)(c1c(OC)cc(C(C)(C)C)cc1OC)c1c(OC)cc(C(C)(C)C)cc1OC
inactive: dose: 6.25 mg/kg/injection, vehicle: saline with Tween-80 107 % of control | [1] 114 % of control and 106 % of control | [2] 112 % of control and 106 % of control | [3] 117 % of control | [4] 109 % of control
